Common to all, as to experiment: NCI anticancer screen, dose series, 48 h
For test [1], the system named is SN12C renal.
In test [2] the test system is SF-539 CNS.
The test system of test [3] is UACC-62 melanoma.
The subject of test [4] is CAKI-1 renal.
Test [5] concerns HCC-2998 colon.
The subject of test [6] is UACC-257 melanoma.
For test [7], the system named is SK-OV-3 ovarian.
In test [8] the test system is MALME-3M melanoma.

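1) Cells in 96-well plates. 2) Compound, 48 h, 5 concentrations. 3) Linear interpolation between surrounding doses. 4) Unreached endpoint = highest concentration. Here, GI50 denotes the concentration required for 50% inhibition of growth. TGI: total growth inhibition.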 *1 amine or outer side, *2 acyl side, *3 side chain or, on linkers, in order; H or OH if unused. Where a SMILES comes first, the peptide text is derived from it. Bridges are numbered along the chain shown (N, C = ends). [ ]: non-standard residue; d: D form. The star is where a group is joined. Phe(3-Me) = Cc1cccc(C[C@H](N)C(=O)O)c1; NH(4-Cl-2-F-phenyl) = Fc1cc(Cl)ccc1N*; Pro(4R-Me) = C[C@H]1CN[C@H](C(=O)O)C1; Hyp = O=C(O)[C@@H]1C[C@@H](O)CN1; aThr = C[C@H](O)[C@H](N)C(=O)O; Pip = O=C(O)[C@@H]1CCCCN1; CO = O=C([*:1])[*:2]

With `Cc1cc(N/N=C/c2nc(-c3ccccc3)oc2C)c2cc(Cl)ccc2n1`, the GI50 in test [1] was 1.78 µM; in test [2], 1.7 µM; in test [3], 1.7 µM; in test [4], 1.69 µM; in test [5], 1.73 µM; in test [6] it was 2.01 µM. The GI50 in test [7] is 1.75 µM; in test [8] it was 1.94 µM. Besides, the TGI in test [1] was 3.49 µM; in test [2], 3.17 µM; in test [3], 3.36 µM; in test [4], 3.1 µM; in test [5] it was 3.23 µM; in test [6], 4.9 µM. The TGI in test [7] came out at 3.29 µM; in test [8], 3.51 µM.

`O=C(N/N=C/c1ccc(O)cc1O)c1ccc(Nc2ccnc(C(F)(F)F)c2)cc1`: the GI50 in test [1] is 24.4 µM; in test [2], 6.32 µM; in test [3], 0.0485 µM; in test [4], 0.0533 µM; in test [5], > 75.2 µM; in test [6] it was > 100 µM. Moreover, the GI50 in test [7] was 9.67 µM; in test [8], 0.661 µM. For the same molecule, the TGI in test [1] is > 100 µM; in test [2], 24.5 µM; in test [3] it was > 100 µM; in test [4] it was 1.8 µM; in test [5] it was > 100 µM; in test [6] it was > 100 µM. Also, the TGI in test [7] was > 80.1 µM; in test [8], > 45.6 µM.

With `CCC(C)/C=C(C)/C=C/C(=O)c1c(O)c(-c2ccc(O)cc2)c[nH]c1=O` (stereo unspecified), the GI50 in test [1] is 3.86 µM; in test [2], 3.3 µM; in test [3] it was 3.73 µM; in test [4] it was 2.74 µM; in test [5], 3.75 µM; in test [6] it was 4.25 µM. Also, the GI50 is 6.32 µM in test [7] and 2.36 µM in test [8]. Also, the TGI in test [1] is 18.1 µM; in test [2], 12.5 µM; in test [3] it was 15.9 µM; in test [4], 12.6 µM; in test [5] it was 14.8 µM; in test [6], 16.4 µM. Also, the TGI in test [7] was 29.4 µM; in test [8], 14.1 µM.

`Cc1cccc(C[C@H](NC(=O)Nc2ccc(Cl)cc2F)C(=O)N[C@@H]2C(=O)N3C[C@H](O)C[C@H]3C(=O)N3CCCC[C@H]3C(=O)N[C@@H](C)C(=O)N3C[C@H](C)C[C@H]3C(=O)O[C@H]2C)c1` ({NH(4-Cl-2-F-phenyl)-CO}-[Phe(3-Me)][aThr][Hyp][Pip]A[Pro(4R-Me)]; ester 2-C): the GI50 in test [1] is 0.393 µM; in test [2], 0.733 µM; in test [3], 0.505 µM; in test [4], 0.807 µM; in test [5], 0.468 µM; in test [6], 0.388 µM. The GI50 in test [7] was 0.501 µM; in test [8], 0.553 µM. Besides, the TGI amounted to 4.6 µM in test [1]; 2.29 µM in test [2]; 1.96 µM in test [3]; 5.58 µM in test [4]; 1.77 µM in test [5]; 2.2 µM in test [6]. The values for the TGI in test [7] and in test [8] were 3.52 µM and 2.19 µM, respectively.

In the case of `c1ccc2[nH]c(-c3ccc(OCCCCCOc4ccc(-c5nc6ccccc6[nH]5)cc4)cc3)nc2c1`, the GI50 is 3.27 µM in test [1]; 0.835 µM in test [2]; 4.95 µM in test [3]; 1.97 µM in test [4]; 2.31 µM in test [5]; 1.65 µM in test [6]. For the same molecule, the GI50 in test [7] is 6.39 µM; in test [8] it was 2.12 µM. In addition, the TGI is 10.2 µM in test [1]; 2.3 µM in test [2]; 10.8 µM in test [3]; 6.8 µM in test [4]; 7.59 µM in test [5]; 3.83 µM in test [6]. In addition, the TGI worked out at 17.5 µM in test [7] and 3.93 µM in test [8].

On to `CNC1NC(=O)c2ccccc2N1Cc1ccc(F)cc1` (stereo unspecified), for which the TGI in test [1], in test [2], in test [3], in test [4], in test [5] and in test [6] was > 100 µM in each case. Also, the TGI in test [7] and in test [8] was > 100 µM throughout.

Regarding `COc1cc2c(OC)c(c1)CCCC1=CC(=O)C=C(CCC2)C1=O`, the TGI was > 31.6 µM in test [1]; > 69.4 µM in test [2]; > 100 µM in test [3]; > 100 µM in test [4]; > 100 µM in test [5]; > 100 µM in test [6]. In addition, the TGI in test [7] is > 100 µM; in test [8] it was 75.8 µM.

Regarding `C=C(CN1CCN(c2ccccc2F)CC1)c1ccc(C(=O)Nc2ccccc2N)cc1`, the GI50 in test [1] was 1.82 µM; in test [2], 1.55 µM; in test [3] it was 1.16 µM; in test [4], 1.81 µM; in test [5], 3.2 µM; in test [6], 0.992 µM. Besides, the GI50 in test [7] is 7.73 µM; in test [8], 1.53 µM. Besides, the TGI in test [1] came to 40.9 µM; in test [2], 6.31 µM; in test [3] it was 18.3 µM; in test [4] it was 7.18 µM; in test [5] it was 17.7 µM; in test [6] it was 35.3 µM. The TGI in test [7] and in test [8] was > 100 µM throughout.

As to `NC1CCC[C@@H](O)[C@H]1O` (stereo partly specified), the TGI in test [1], in test [2], in test [3], in test [4], in test [5] and in test [6] was > 100 µM throughout. Also, the TGI in test [7] and in test [8] was > 100 µM throughout.

With `COc1cc(-c2cn(-c3ccc(Cl)cc3)c(=O)[nH]2)cc(OC)c1OC`, the GI50 in test [1], in test [2], in test [3], in test [4], in test [5] and in test [6] was > 100 µM in each case. Further, the GI50 in test [7] and in test [8] was > 100 µM in each case. The TGI in test [1], in test [2], in test [3], in test [4], in test [5] and in test [6] was > 100 µM each time. The TGI in test [7] and in test [8] was > 100 µM each time.
